According to US6472348B1, “Pyridone derivatives and herbicides” (Kumiai Chemical Industry Co., Ltd., priority 1996, dated 2002):

How the values were obtained:
[1] = test system: barnyardgrass (Ec); experiment: Test Example 1: herbicidal effects by paddy field soil treatment; format: in vivo; conditions: 100 g of the active ingredient per 10 ares, 21st day after the application, index 0-5 of Table 47;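 further: grade of growth control; 5 = at least 90%; 4 = 70 to 90%; 3 = 50 to 70%; 2 = 30 to 50%; 1 = 10 to 30%; 0 = under 10%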
Method in brief: (§1)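 Scoring of herbicidal effect came 21 days after application of 100 g active ingredient per 10 ares to flooded (3 cm) paddy-soil pots sown with barnyardgrass, monochoria and bulrush, kept in a greenhouse.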

[2] = test system: bulrush (Sc); experiment: as above; format: in vivo; conditions: 100 g of the active ingredient per 10 ares, 21st day after the application, index 0-5 of Table 47;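 further: grade of growth control; 5 = at least 90%; 4 = 70 to 90%; 3 = 50 to 70%; 2 = 30 to 50%; 1 = 10 to 30%; 0 = under 10%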
Method in brief: as §1

[3] = test system: monochoria (Mo); experiment: as above; format: in vivo; conditions: 100 g of the active ingredient per 10 ares, 21st day after the application, index 0-5 of Table 47;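 further: grade of growth control; 5 = at least 90%; 4 = 70 to 90%; 3 = 50 to 70%; 2 = 30 to 50%; 1 = 10 to 30%; 0 = under 10%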
Method in brief: as §1

[4] = test system: Digitaria ciliaris (Di); experiment: Test Example 2: herbicidal effects by upland field soil treatment; format: in vivo; conditions: 100 g of the active ingredient per 10 ares, evaluated on the 21st day after application;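 further: grade of growth control; 5 = at least 90%; 4 = 70 to 90%; 3 = 50 to 70%; 2 = 30 to 50%; 1 = 10 to 30%; 0 = under 10%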
From the text: (§2) (Test on Herbicidal Effects by Upland Field Soil Treatment)

[5] = test system: barnyardgrass (Ec); experiment: as above; format: in vivo; conditions: 100 g of the active ingredient per 10 ares, evaluated on the 21st day after application
From the text: as §2

[6] = test system: common lambsquarters (Ch); experiment: as above; format: in vivo; conditions: 100 g of the active ingredient per 10 ares, evaluated on the 21st day after application
From the text: as §2

[7] = test system: pale smartweed (Po); experiment: as above; format: in vivo; conditions: 100 g of the active ingredient per 10 ares, evaluated on the 21st day after application
From the text: as §2

[8] = test system: rice flatsedge (Ci); experiment: as above; format: in vivo; conditions: 100 g of the active ingredient per 10 ares, evaluated on the 21st day after application
From the text: as §2

[9] = test system: slender amaranth (Am); experiment: as above; format: in vivo; conditions: 100 g of the active ingredient per 10 ares, evaluated on the 21st day after application
From the text: as §2

[10] = test system: Diaitaria ciliaris (Di); experiment: Test Example 3: herbicidal effects by upland field foliage treatment; format: in vivo; parameters: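 grade of growth control; 5 = at least 90%; 4 = 70 to 90%; 3 = 50 to 70%; 2 = 30 to 50%; 1 = 10 to 30%; 0 = under 10%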
Method in brief: (§3)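 Test plants had been raised from seed for 2 weeks in a greenhouse, in soil-covered sand pots of 120 cm^2, and were returned there after spraying.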

[11] = test system: barnyardgrass (Ec); experiment: as above; format: in vivo; parameters: scale not given here
Method in brief: as §3

[12] = test system: common lambsquarters (Ch); experiment: as above; format: in vivo; parameters: scale not given here
Method in brief: as §3

[13] = test system: pale smartweed (Po); experiment: as above; format: in vivo; parameters: scale not given here
Method in brief: as §3

[14] = test system: rice flatsedge (Ci); experiment: as above; format: in vivo; parameters: scale not given here
Method in brief: as §3

[15] = test system: slender amaranth (Am); experiment: as above; format: in vivo; parameters: scale not given here
Method in brief: as §3

[16] = test system: wheat (Tr); experiment: Test Example 9: crop plant selectivity by upland field foliage treatment (wheat), phytotoxicity; conditions: dose 1.6 g ai/10a, 14th day after treatment
Method in brief: (§4)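 Wheat and weeds sown in sand-filled pots, grown 2 weeks in a greenhouse, then foliage-treated. Herbicidal effect and crop phytotoxicity were scored 14 days after treatment against a rating scale.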

[17] = test system: China jute (Ab); experiment: Test Example 9: crop plant selectivity by upland field foliage treatment (wheat), herbicidal effects; format: in vivo; parameters: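 grade of growth control; 5 = at least 90%; 4 = 70 to 90%; 3 = 50 to 70%; 2 = 30 to 50%; 1 = 10 to 30%; 0 = under 10%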; conditions: dose 1.6 g ai/10a, 14th day after treatment
Method in brief: as §4

[18] = test system: common lambsquarters (Ch); experiment: as above; format: in vivo; parameters: scale not given here; conditions: dose 1.6 g ai/10a, 14th day after treatment
Method in brief: as §4

[19] = test system: pale smartweed (Po); experiment: as above; format: in vivo; parameters: scale not given here; conditions: dose 1.6 g ai/10a, 14th day after treatment
Method in brief: as §4

[20] = test system: slender amaranth (Am); experiment: as above; format: in vivo; parameters: scale not given here; conditions: dose 1.6 g ai/10a, 14th day after treatment
Method in brief: as §4

[21] = test system: corn (Ze); experiment: Test Example 11: crop plant selectivity by upland field foliage treatment (corn), phytotoxicity; conditions: dose 1.6 g ai/10a
Description: (§5) (Test on Crop Plant Selectivity by Upland Field Foliage Treatment)
(§6) In a plastic pot (surface area: 600 cm^2) filled with sand, corn (Ze), pale smartweed (Po), slender amaranth (Am), common lambsquarters (Ch) and China jute (Ab) were sown and cultured in a green house for 2 weeks. […] The plants were then cultured in a green house, and the evaluation of the herbicidal effects and phytotoxicity was conducted on the 14th day after the treatment in accordance with the standards as identified in Table 47.

[22] = test system: China jute (Ab); experiment: Test Example 11: crop plant selectivity by upland field foliage treatment (corn), herbicidal effects; format: in vivo; parameters: scale not given here; conditions: dose 1.6 g ai/10a
Description: as §5, §6

[23] = test system: common lambsquarters (Ch); experiment: as above; format: in vivo; parameters: scale not given here; conditions: dose 1.6 g ai/10a
Description: as §5, §6

[24] = test system: pale smartweed (Po); experiment: as above; format: in vivo; parameters: scale not given here; conditions: dose 1.6 g ai/10a
Description: as §5, §6

[25] = test system: slender amaranth (Am); experiment: as above; format: in vivo; parameters: scale not given here; conditions: dose 1.6 g ai/10a
Description: as §5, §6

[26] = 100 g of the active ingredient per 10 ares, evaluated on the 14th day after treatment
[27] = upland field foliage treatment, 14th day after treatment
[28] = upland field foliage treatment (corn test), 14th day after treatment
[29] = 100 g active ingredient per 10 ares, evaluated 14th day after treatment

| Compound | Herbicidal effects Ec [1] | Herbicidal effects Sc [2] | Herbicidal effects Mo [3] | Herbicidal effects Di [4] | Herbicidal effects Ec [5] | Herbicidal effects Ch [6] | Herbicidal effects Po [7] | Herbicidal effects Ci [8] | Herbicidal effects Am [9] | Phytotoxicity Tr [16] | Herbicidal effects Ab [17] | Herbicidal effects Ch [18] | Herbicidal effects Po [19] | Herbicidal effects Am [20] | Phytotoxicity Ze [21, 27] | Herbicidal effects Ab [22, 28] | Herbicidal effects Ch [23, 28] | Herbicidal effects Po [24, 28] | Herbicidal effects Am [25, 28] | Herbicidal effects Di [10, 29] | further results |
| --- | --- | --- | --- | --- | --- | --- | --- | --- | --- | --- | --- | --- | --- | --- | --- | --- | --- | --- | --- | --- | --- |
| CC(C#N)Oc1cc(-c2ccc(C(F)(F)F)n(C)c2=O)c(F)cc1Cl (stereo not shown) [1-176] | 5 | 5 | 5 | 5 | 5 | 5 | 5 | 5 | 5 | 1 | 5 | 5 | 5 | 5 | 1 | 5 | 5 | 5 | 5 |  | Herbicidal effects Di [10, 26]: 5; Herbicidal effects Ec [11, 26]: 5; Herbicidal effects Ch [12, 26]: 5; Herbicidal effects Po [13, 26]: 5; Herbicidal effects Ci [14, 26]: 5; Herbicidal effects Am [15, 26]: 5 |
| C=CCN1C(=O)COc2ccc(-c3ccc(C(F)(F)F)n(C)c3=O)cc21 [2-31] | 5 | 5 | 5 | 5 | 5 | 5 | 5 | 5 | 5 | 2 | 5 | 5 | 5 | 5 | 2 | 5 | 5 | 5 | 5 | 5 | Herbicidal effects Ec [11, 29]: 5; Herbicidal effects Ch [12, 29]: 5; Herbicidal effects Po [13, 29]: 5; Herbicidal effects Ci [14, 29]: 5; Herbicidal effects Am [15, 29]: 5 |
| COCOCc1cc(-c2ccc(C(F)(F)F)n(C)c2=O)c(F)cc1Cl [Compound 1-200] | 5 | 5 | 5 | 5 | 5 | 5 | 5 | 5 | 5 | 2 | 5 | 5 | 5 | 5 | 2 | 5 | 5 | 5 | 5 | 5 | Herbicidal effects Ec [11, 29]: 5; Herbicidal effects Ch [12, 29]: 5; Herbicidal effects Po [13, 29]: 5; Herbicidal effects Ci [14, 29]: 5; Herbicidal effects Am [15, 29]: 5 |
| Cn1c(C(F)(F)F)ccc(-c2cc(COC3CCCC3)c(Cl)cc2F)c1=O [Compound 1-201] | 5 | 5 | 5 | 5 | 5 | 5 | 5 | 5 | 5 | 2 | 5 | 5 | 5 | 5 | 2 | 5 | 5 | 5 | 5 | 5 | Herbicidal effects Ec [11, 29]: 4; Herbicidal effects Ch [12, 29]: 5; Herbicidal effects Po [13, 29]: 5; Herbicidal effects Ci [14, 29]: 5; Herbicidal effects Am [15, 29]: 5 |
| C=C(Cl)COc1cc(-c2ccc(C(F)(F)F)n(C)c2=O)c(F)cc1Cl [Compound 1-203] | 5 | 5 | 5 | 5 | 5 | 5 | 5 | 5 | 5 | 2 | 5 | 5 | 5 | 5 | 2 | 5 | 5 | 5 | 5 | 5 | Herbicidal effects Ec [11, 29]: 5; Herbicidal effects Ch [12, 29]: 5; Herbicidal effects Po [13, 29]: 5; Herbicidal effects Ci [14, 29]: 5; Herbicidal effects Am [15, 29]: 5 |
| Cn1c(C(F)(F)F)ccc(-c2cc(OCCCF)c(Cl)cc2F)c1=O [Compound 1-204] | 5 | 5 | 5 | 5 | 5 | 5 | 5 | 5 | 5 | 2 | 5 | 5 | 5 | 5 | 2 | 5 | 5 | 5 | 5 | 5 | Herbicidal effects Ec [11, 29]: 5; Herbicidal effects Ch [12, 29]: 5; Herbicidal effects Po [13, 29]: 5; Herbicidal effects Ci [14, 29]: 5; Herbicidal effects Am [15, 29]: 5 |
| COCN1C(=O)COc2cc(F)c(-c3ccc(C(F)(F)F)n(C)c3=O)cc21 [Compound 2-19] | 5 | 5 | 5 | 5 | 5 | 5 | 5 | 5 | 5 | 1 | 5 | 5 | 5 | 5 | 1 | 5 | 5 | 5 | 5 | 5 | Herbicidal effects Ec [11, 29]: 5; Herbicidal effects Ch [12, 29]: 5; Herbicidal effects Po [13, 29]: 5; Herbicidal effects Ci [14, 29]: 5; Herbicidal effects Am [15, 29]: 5 |
| C=CCn1c(=O)sc2cc(F)c(-c3ccc(C(F)(F)F)n(C)c3=O)cc21 [Compound 3-5] | 5 | 5 | 5 | 5 | 5 | 5 | 5 | 5 | 5 | 1 | 5 | 5 | 5 | 5 | 2 | 5 | 5 | 5 | 5 | 5 | Herbicidal effects Ec [11, 29]: 5; Herbicidal effects Ch [12, 29]: 5; Herbicidal effects Po [13, 29]: 5; Herbicidal effects Ci [14, 29]: 5; Herbicidal effects Am [15, 29]: 5 |
| Cn1c(C(F)(F)F)ccc(-c2cc3c(cc2F)sc(=O)n3C)c1=O [Compound 3-6] | 5 | 5 | 5 | 5 | 5 | 5 | 5 | 5 | 5 | 2 | 5 | 5 | 5 | 5 | 2 | 5 | 5 | 5 | 5 | 5 | Herbicidal effects Ec [11, 29]: 5; Herbicidal effects Ch [12, 29]: 5; Herbicidal effects Po [13, 29]: 5; Herbicidal effects Ci [14, 29]: 5; Herbicidal effects Am [15, 29]: 5 |
| CCCc1cc2c(Cl)cc(F)c(-c3ccc(C(F)(F)F)n(C)c3=O)c2o1 [Compound 5-3] | 5 | 5 | 5 | 5 | 5 | 5 | 5 | 5 | 5 | 1 | 5 | 5 | 5 | 5 |  |  |  |  |  | 5 | Herbicidal effects Ec [11, 29]: 5; Herbicidal effects Ch [12, 29]: 5; Herbicidal effects Po [13, 29]: 5; Herbicidal effects Ci [14, 29]: 5; Herbicidal effects Am [15, 29]: 5; Phytotoxicity Ze ([21]; corn, foliage treatment, evaluated on 14th day after treatment, index per Table 47): 2; Herbicidal effects Ab ([22]; China jute, foliage treatment, evaluated on 14th day after treatment, index per Table 47): 5; Herbicidal effects Ch ([23]; common lambsquarters, foliage treatment, evaluated on 14th day after treatment, index per Table 47): 5; Herbicidal effects Po ([24]; pale smartweed, foliage treatment, evaluated on 14th day after treatment, index per Table 47): 5; Herbicidal effects Am ([25]; slender amaranth, foliage treatment, evaluated on 14th day after treatment, index per Table 47): 5 |
